Experiment: molar heat capacity at constant pressure
Details: Liquid, Flow calorimetry

O [water]
molar heat capacity at constant pressure [J/K/mol]
Details | 100 kPa | 5000 kPa | 10000 kPa | 15000 kPa
294.2 K | – | – | 73.7 | –
294.24 K | 74.96 | 74.89 | – | –
294.27 K | – | – | – | 74.67
303.93 K | 75.43 | – | – | –
303.97 K | – | 75.34 | – | 76.01
303.98 K | – | – | 75.05 | –
313.68 K | 76.44 | – | 75.93 | –
313.69 K | – | 76.02 | – | 75.83
323.43 K | 76.28 | 75.84 | 75.47 | 74.96
333.33 K | 75.9 | 75.47 | 75.23 | 75.11
343.28 K | 76.31 | 75.95 | 75.29 | 75.07
353.25 K | – | 75.84 | 75.63 | 75.25
353.26 K | 76.04 | – | – | –

CCOC(F)(F)C(F)(F)C(F)(F)C(F)(F)F [1-ethoxy-1,1,2,2,3,3,4,4,4-nonafluorobutane]
Details | molar heat capacity at constant pressure [J/K/mol]
245.62 K, 100 kPa | 307.66
245.63 K, 10000 kPa | 295.52
245.64 K, 5000 kPa | 299.74
245.64 K, 15000 kPa | 286.54
254.42 K, 100 kPa | 317.7
254.44 K, 5000 kPa | 310.04
254.44 K, 10000 kPa | 305.81
254.44 K, 15000 kPa | 297.89
264.28 K, 100 kPa | 328.53
264.29 K, 10000 kPa | 319.55
264.3 K, 5000 kPa | 321.66
264.3 K, 15000 kPa | 307.4
274.14 K, 100 kPa | 337.24
274.16 K, 10000 kPa | 328.26
274.17 K, 5000 kPa | 332.49
274.17 K, 15000 kPa | 318.23
283.97 K, 100 kPa | 343.58
283.98 K, 10000 kPa | 340.67
283.99 K, 5000 kPa | 338.83
283.99 K, 15000 kPa | 333.02
293.9 K, 100 kPa | 365.5
293.92 K, 10000 kPa | 356.52
293.93 K, 5000 kPa | 360.75
293.93 K, 15000 kPa | 344.64
303.85 K, 100 kPa | 373.69
303.85 K, 10000 kPa | 364.71
303.86 K, 5000 kPa | 368.93
303.86 K, 15000 kPa | 356.52
313.79 K, 100 kPa | 389.8
313.9 K, 10000 kPa | 377.91
313.91 K, 5000 kPa | 385.04
313.91 K, 15000 kPa | 369.2
323.6 K, 100 kPa | 393.76
323.62 K, 10000 kPa | 384.78
323.63 K, 5000 kPa | 389
323.63 K, 15000 kPa | 384.51
333.28 K, 100 kPa | 407.23
333.29 K, 5000 kPa | 402.47
333.29 K, 10000 kPa | 398.25
333.29 K, 15000 kPa | 399.04
343.51 K, 100 kPa | 419.9
343.52 K, 10000 kPa | 410.92
343.53 K, 5000 kPa | 414.88
343.53 K, 15000 kPa | 407.49
353.61 K, 100 kPa | 431.79
353.62 K, 10000 kPa | 422.81
353.63 K, 5000 kPa | 426.77
353.63 K, 15000 kPa | 420.43

CCOC(F)(C(F)(F)C(F)(F)C(F)(F)F)C(F)(C(F)(F)F)C(F)(F)F (centres undefined) [2-trifluoromethyl-3-ethoxydodecafluorohexane]
molar heat capacity at constant pressure [J/K/mol]
Details | 100 kPa | 5000 kPa | 10000 kPa | 15000 kPa
248.45 K | 309.34 | 304.79 | 300.64 | 300.23
254.4 K | 329.22 | 325.49 | 320.94 | 319.28
264.24 K | 362.35 | 358.21 | 354.07 | 351.17
273.51 K | 393.82 | 390.92 | 387.19 | 380.98
283.77 K | 428.61 | 428.19 | 426.12 | 414.53
294.36 K | 470.02 | 463.8 | 461.73 | 456.35
304.12 K | 490.31 | 485.34 | 484.1 | 476.23
313.92 K | 531.72 | 528.41 | 526.75 | 516.81
323.65 K | 565.26 | 559.05 | 547.87 | 543.31
333.47 K | 587.21 | 578.1 | 571.47 | 565.68
343.39 K | 629.04 | 620.75 | 612.88 | 606.67
353.38 K | 669.2 | 656.78 | 653.88 | 649.74
